The compounds below were run against T1, F508del (Homo sapiens, UniProt P13569, DEL508-508) (assay: Protocol 2: FRET membrane potential optical assay (VIPR), identification of correction compounds). Details: F508del CFTR modulator activity; compounds of Table 1; read-out: EC30.
T1 construct: expressed in transfected cells
Format: cell-based
How it was run: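 NIH3T3 mouse fibroblasts stably expressing F508del-CFTR incubated with compound 16 h at 37 °C in serum-free medium, then loaded with CC2-DMPE/DiSBAC2(3) FRET dyes. Channel activated with 10 μM forskolin plus 20 μM genistein in Cl⁻-free (gluconate) bath; depolarisation from Cl⁻ efflux read on VIPR II.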

T1 sequence (P13569 with tags, fused parts or gaps DEL508-508): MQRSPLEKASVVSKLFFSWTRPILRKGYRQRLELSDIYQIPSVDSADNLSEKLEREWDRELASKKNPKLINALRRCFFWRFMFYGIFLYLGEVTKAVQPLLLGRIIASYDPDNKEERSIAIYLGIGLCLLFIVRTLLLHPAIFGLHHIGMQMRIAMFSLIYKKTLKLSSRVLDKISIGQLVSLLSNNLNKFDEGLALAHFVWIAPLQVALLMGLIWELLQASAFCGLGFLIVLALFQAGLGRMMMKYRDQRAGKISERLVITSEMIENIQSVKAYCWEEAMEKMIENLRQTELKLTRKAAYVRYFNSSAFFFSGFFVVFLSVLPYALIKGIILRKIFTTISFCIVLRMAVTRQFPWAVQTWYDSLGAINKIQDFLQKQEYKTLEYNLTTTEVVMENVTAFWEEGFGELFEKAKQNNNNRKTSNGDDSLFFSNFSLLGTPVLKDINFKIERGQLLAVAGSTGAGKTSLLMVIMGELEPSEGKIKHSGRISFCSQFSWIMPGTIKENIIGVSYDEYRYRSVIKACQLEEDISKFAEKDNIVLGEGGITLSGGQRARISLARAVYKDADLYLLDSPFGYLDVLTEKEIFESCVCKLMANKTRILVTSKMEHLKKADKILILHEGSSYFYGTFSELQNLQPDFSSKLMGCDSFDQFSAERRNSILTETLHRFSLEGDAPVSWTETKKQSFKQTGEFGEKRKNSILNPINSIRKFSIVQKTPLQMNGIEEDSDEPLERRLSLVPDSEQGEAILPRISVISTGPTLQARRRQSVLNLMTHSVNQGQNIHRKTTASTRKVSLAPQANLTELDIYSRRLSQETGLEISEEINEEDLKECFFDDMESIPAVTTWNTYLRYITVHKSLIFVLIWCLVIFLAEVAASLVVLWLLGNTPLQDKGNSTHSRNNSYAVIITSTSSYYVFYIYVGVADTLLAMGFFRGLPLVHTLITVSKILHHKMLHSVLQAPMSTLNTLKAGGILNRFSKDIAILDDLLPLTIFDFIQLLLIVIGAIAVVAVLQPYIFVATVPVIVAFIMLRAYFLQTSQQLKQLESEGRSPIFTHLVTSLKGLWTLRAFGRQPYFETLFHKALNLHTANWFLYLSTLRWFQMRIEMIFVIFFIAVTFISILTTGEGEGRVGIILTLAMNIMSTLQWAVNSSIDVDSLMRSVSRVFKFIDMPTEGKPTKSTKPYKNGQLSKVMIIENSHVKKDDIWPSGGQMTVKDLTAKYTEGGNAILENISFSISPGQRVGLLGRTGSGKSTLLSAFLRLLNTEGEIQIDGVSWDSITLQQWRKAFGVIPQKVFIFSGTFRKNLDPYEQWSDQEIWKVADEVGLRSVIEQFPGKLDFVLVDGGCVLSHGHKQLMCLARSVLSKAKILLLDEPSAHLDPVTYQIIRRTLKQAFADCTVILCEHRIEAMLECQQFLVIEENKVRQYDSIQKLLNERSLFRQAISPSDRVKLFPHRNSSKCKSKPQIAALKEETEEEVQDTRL

Compound | EC30
CC(C)COc1ccc(-c2ccc(C(=O)NS(=O)(=O)c3ccc[nH]c3=O)c(N3C[C@@H](C)CC3(C)C)n2)cc1 [Compound 2153, 6-(4-isobutoxyphenyl)-N-[(2-oxo-1H-pyridin-3-yl)sulfonyl]-2-[(4S)-2,2,4-trimethylpyrrolidin-1-yl]pyridine-3-carboxamide] | < 3 µM
CC1CN(c2ncccc2C(=O)NS(=O)(=O)c2cccc(OCc3cccc(C#N)c3)n2)C(C)(C)C1 (stereo not drawn) [Compound 2299, N—[[6-[(3-cyanophenyl)methoxy]-2-pyridyl]sulfonyl]-2-(2,2,4-trimethylpyrrolidin-1-yl)pyridine-3-carboxamide] | < 3 µM
C[C@@H]1CN(c2nc(-c3cccc(C#N)c3)ccc2C(=O)NS(=O)(=O)c2ccc[nH]c2=O)C(C)(C)C1 [Compound 2185, 6-(3-cyanophenyl)-N-[(2-oxo-1H-pyridin-3-yl)sulfonyl]-2-[(4S)-2,2,4-trimethylpyrrolidin-1-yl]pyridine-3-carboxamide] | 3 to 10 µM
C[C@@H]1CN(c2nc(C3CCOC3)ccc2C(=O)NS(=O)(=O)c2ccccc2)C(C)(C)C1 (stereo partly drawn) [Compound 2277, N-(benzenesulfonyl)-6-tetrahydrofuran-3-yl-2-[(4S)-2,2,4-trimethylpyrrolidin-1-yl]pyridine-3-carboxamide] | < 3 µM
CC1CN(c2ncccc2C(=O)NS(=O)(=O)c2cccc(NCC(F)F)n2)C(C)(C)C1 (stereo not drawn) [Compound 2350, N—[[6-(2,2-difluoroethylamino)-2-pyridyl]sulfonyl]-2-(2,2,4-trimethylpyrrolidin-1-yl)pyridine-3-carboxamide] | 3 to 10 µM
CC1CN(c2ncccc2C(=O)NS(=O)(=O)c2cccc(OCC3COc4ccccc4C3)n2)C(C)(C)C1 (stereo not drawn) [Compound 2595, N—[[6-(chroman-3-ylmethoxy)-2-pyridyl]sulfonyl]-2-(2,2,4-trimethylpyrrolidin-1-yl)pyridine-3-carboxamide] | < 3 µM
COc1cc(C)cc(-c2cnc(N3CC(C)CC3(C)C)c(C(=O)NS(=O)(=O)c3cccc(N)n3)c2)c1 (stereo not drawn) [Compound 2499, N-[(6-amino-2-pyridyl)sulfonyl]-5-(3-methoxy-5-methyl-phenyl)-2-(2,2,4-trimethylpyrrolidin-1-yl)pyridine-3-carboxamide] | < 3 µM
COc1ccc(F)c(-c2ccc(C(=O)NS(=O)(=O)c3cccnc3N)c(N3C[C@@H](C)CC3(C)C)n2)c1 [Compound 2474, N-[(2-amino-3-pyridyl)sulfonyl]-6-(2-fluoro-5-methoxy-phenyl)-2-[(4S)-2,2,4-trimethylpyrrolidin-1-yl]pyridine-3-carboxamide] | < 3 µM
CC1CN(c2ncccc2C(=O)NS(=O)(=O)c2cccc(OC3CCC(C(C)C)CC3)n2)C(C)(C)C1 (stereo not drawn) [Compound 2173, N—[[6-(4-isopropylcyclohexoxy)-2-pyridyl]sulfonyl]-2-(2,2,4-trimethylpyrrolidin-1-yl)pyridine-3-carboxamide] | < 3 µM
CC(C)CN(C)c1cccc(S(=O)(=O)NC(=O)c2cccnc2N2CC(C)CC2(C)C)n1 (stereo not drawn) [Compound 2746] | < 3 µM
C[C@@H]1CN(c2nc3ccccc3cc2C(=O)NS(=O)(=O)c2ccc[nH]c2=O)C(C)(C)C1 [Compound 2405, N-[(2-oxo-1H-pyridin-3-yl)sulfonyl]-2-[(4S)-2,2,4-trimethylpyrrolidin-1-yl]quinoline-3-carboxamide] | < 3 µM
CC1CN(c2ncccc2C(=O)NS(=O)(=O)c2cccc(Nc3ccccc3)n2)C(C)(C)C1 (stereo not drawn) [Compound 2639, N-[(6-anilino-2-pyridyl)sulfonyl]-2-(2,2,4-trimethylpyrrolidin-1-yl)pyridine-3-carboxamide] | < 3 µM
CC1CN(c2ncccc2C(=O)NS(=O)(=O)c2cccc(OCc3ccc4c(c3)OCO4)n2)C(C)(C)C1 (stereo not drawn) [Compound 2169, N—[[6-(1,3-benzodioxol-5-ylmethoxy)-2-pyridyl]sulfonyl]-2-(2,2,4-trimethylpyrrolidin-1-yl)pyridine-3-carboxamide] | < 3 µM
C[C@@H]1CN(c2nc(-c3ccccc3OC(F)(F)F)ccc2C(=O)NS(=O)(=O)c2cccnc2N)C(C)(C)C1 [Compound 2539, N-[(2-amino-3-pyridyl)sulfonyl]-6-[12-(trifluoromethoxy)phenyl]-2-[(4S)-2,2,4-trimethylpyrrolidin-1-yl]pyridine-3-carboxamide] | < 3 µM
Cc1ccc2cccc(Oc3cccc(S(=O)(=O)NC(=O)c4cccnc4N4CC(C)CC4(C)C)n3)c2n1 (stereo not drawn) [Compound 2643, N—[[6-[(2-methyl-8-quinolyl)oxy]-2-pyridyl]sulfonyl]-2-(2,2,4-trimethylpyrrolidin-1-yl)pyridine-3-carboxamide] | < 3 µM
C[C@@H]1CN(c2nc(-c3ccccc3Cl)ccc2C(=O)NS(=O)(=O)c2cccnc2N)C(C)(C)C1 [Compound 2066, N-[(2-amino-3-pyridyl)sulfonyl]-6-(2-chlorophenyl)-2-[(4S)-2,2,4-trimethylpyrrolidin-1-yl]pyridine-3-carboxamide] | < 3 µM
CC1CN(c2ncccc2C(=O)NS(=O)(=O)c2cccc(Nc3ccc(F)cc3)n2)C(C)(C)C1 (stereo not drawn) [Compound 2102, N—[[6-(4-fluoroanilino)-2-pyridyl]sulfonyl]-2-(2,2,4-trimethylpyrrolidin-1-yl)pyridine-3-carboxamide] | < 3 µM
COc1ccc(CNc2cccc(S(=O)(=O)NC(=O)c3ccc(C(C)(C)C)nc3N3CC(C)CC3(C)C)n2)cc1 (stereo not drawn) [Compound 2712] | < 3 µM
CC1CN(c2ncccc2C(=O)NS(=O)(=O)c2cccc(OCc3ccc(C(F)(F)F)nc3)n2)C(C)(C)C1 (stereo not drawn) [Compound 2476, N—[[6-[[6-(trifluoromethyl)-3-pyridyl]methoxy]-2-pyridyl]sulfonyl]-2-(2,2,4-trimethylpyrrolidin-1-yl)pyridine-3-carboxamide] | < 3 µM
C[C@@H]1CN(c2nc(-n3ccc(OCC4CC4)n3)ccc2C(=O)NS(=O)(=O)c2cccnc2N)C(C)(C)C1 [Compound 2691] | < 3 µM
COc1c(C)cccc1-c1ccc(C(=O)NS(=O)(=O)c2cccnc2N)c(N2C[C@@H](C)CC2(C)C)n1 [Compound 2380, N-[(2-amino-3-pyridyl)sulfonyl]-6-(2-methoxy-3-methyl-phenyl)-2-[(4S)-2,2,4-trimethylpyrrolidin-1-yl]pyridine-3-carboxamide] | < 3 µM

Same assay, conditions: Table 3; compounds of Table 1 as modulators of CFTR activity; protocol not stated

Compound | EC30
CC(C)(C)c1cc(C(=O)NS(=O)(=O)c2ccccc2)n(Cc2cccc3ccccc23)n1 [Compound 328, N-(benzenesulfonyl)-5-tert-butyl-2-(1-naphthylmethyl)pyrazole-3-carboxamide] | +++ (“+++” means <3 uM)
Cc1cc(F)cc(-c2nc(C(C)(C)C)ccc2C(=O)NS(=O)(=O)c2cccc(N)c2)c1 [Compound 237, N-(3-aminophenyl)sulfonyl-6-tert-butyl-2-(3-fluoro-5-methyl-phenyl)pyridine-3-carboxamide] | ++ (“++” means between 3 uM and 10 uM)
Cc1ccc(-c2ccc(C(=O)NS(=O)(=O)c3cc[nH]n3)c(Oc3ccc(C)cc3C)n2)cc1 [Compound 610, 2-(2,4-dimethylphenoxy)-6-(p-tolyl)-N-(1H-pyrazol-3-ylsulfonyl)pyridine-3-carboxamide] | +++ (“+++” means <3 uM)
Cc1cc(C)c(Cn2c(C(=O)NS(=O)(=O)c3ccccc3O)cc3ccccc32)c(C)c1 [Compound 112, N-(2-hydroxyphenyl)sulfonyl-1-[(2,4,6-trimethylphenyl)methyl]indole-2-carboxamide] | +++ (“+++” means <3 uM)
Cc1cccc(C)c1Cn1nc(-c2cccc(OC(C)(C)C)c2)cc1C(=O)NS(=O)(=O)c1ccccc1 [Compound 744, N-(benzenesulfonyl)-5-(3-tert-butoxyphenyl)-2-[(2,6-dimethylphenyl)methyl]pyrazole-3-carboxamide] | +++ (“+++” means <3 uM)
Cc1ccc(-c2ccc(C(=O)NS(=O)(=O)c3cccc(N)n3)c(N3CC(C)CC3(C)C)n2)c(C)c1 (stereo not drawn) [Compound 614, N-[(6-amino-2-pyridyl)sulfonyl]-6-(2,4-dimethylphenyl)-2-(2,2,4-trimethylpyrrolidin-1-yl)pyridine-3-carboxamide] | +++ (“+++” means <3 uM)
C=Cc1ccc(C(=O)NS(=O)(=O)c2cccc(N)n2)c(Oc2c(C)cc(C)cc2C)n1 [Compound 430, N-[(6-amino-2-pyridyl)sulfonyl]-2-(2,4,6-trimethylphenoxy)-6-vinyl-pyridine-3-carboxamide] | +++ (“+++” means <3 uM)
Cc1cc(C(=O)NS(=O)(=O)c2cccc(N)n2)c(N2[C@H](C)CC[C@@H]2C)nc1-c1cc(F)cc(OCC(C)C)c1 [Compound 483, N-[(6-amino-2-pyridyl)sulfonyl]-2-[(2R,5S)-2,5-dimethylpyrrolidin-1-yl]-6-(3-fluoro-5-isobutoxy-phenyl)-5-methyl-pyridine-3-carboxamide] | +++ (“+++” means <3 uM)
CCOc1cccc(-c2ccc(C(=O)NS(=O)(=O)c3cccc(N)n3)c(Oc3c(C)cc(C)cc3C)n2)c1 [Compound 61, N-[(6-amino-2-pyridyl)sulfonyl]-6-(3-ethoxyphenyl)-2-(2,4,6-trimethylphenoxy)pyridine-3-carboxamide] | +++ (“+++” means <3 uM)
Cc1ccccc1Oc1nc(C(C)(C)C)ccc1C(=O)NS(=O)(=O)c1cccc(N)c1 [Compound 296, N-(3-aminophenyl)sulfonyl-6-tert-butyl-2-(2-methylphenoxy)pyridine-3-carboxamide] | +++ (“+++” means <3 uM)
CC1CCN(c2nc(-c3ccc(OC(C)C)nc3)ccc2C(=O)NS(=O)(=O)c2ccn[nH]2)CC1 [Compound 534, 6-(6-isopropoxy-3-pyridyl)-2-(4-methyl-1-piperidyl)-N-(1H-pyrazol-5-ylsulfonyl)pyridine-3-carboxamide] | ++ (“++” means between 3 uM and 10 uM)
Cc1cc(C)c(Oc2nc(N3CCCCC3)ccc2C(=O)NS(=O)(=O)c2cccc(N)n2)c(C)c1 [Compound 785, N-[(6-amino-2-pyridyl)sulfonyl]-6-(1-piperidyl)-2-(2,4,6-trimethylphenoxy)pyridine-3-carboxamide] | +++ (“+++” means <3 uM)

From US10758534B2 (Vertex Pharmaceuticals Incorporated, priority 2014, dated 2020)
